From patent US12077503B2, “Substituted cyclic amides and their use as herbicides” (FMC CORPORATION, priority 2015, dated 2024)

Tests used:
Format in all cases: in vivo
corn (Zea mays) [1] = experiment: Test G Post-Emergence Protocol; conditions: Zea mays, post-emergence, 312 h, read-out: Corn damage rating; for plant injury at 15.625 g/ha: 15.625 g ai/ha, evaluated after 13 days (100=total damage to plant; 0=no damage to plant); for plant injury at 62.5 g/ha: 62.5 g ai/ha; for plant injury at 62.5 g/ha / plant injury at 250 g/ha: evaluated after 13 days, 100=total damage to plant, 0=no damage to plant; for plant injury at 250 g/ha: 250 g ai/ha
Outline: (§1)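 Damage was rated 13 days after treatment from 0 (none) to 100 (plant killed). Compound was applied as a spray at 15.625, 62.5 or 250 g/ha in 50:50 acetone/water containing 0.5% Tween 20, onto 8-day-old potted plants kept in a glasshouse (24/16 °C, 14 h light, 65% humidity).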

[2] = system: ivy-leaved morning glory (Ipomoea hederacea); experiment: Test G Post-Emergence Protocol; conditions: Ipomoea, post-emergence, 312 h, read-out: Morningglory, Ivy-leaved damage rating; for pest or weed control at 15.625 g/ha: 15.625 g ai/ha, evaluated after 13 days (100=total damage to plant; 0=no damage to plant); for pest or weed control at 62.5 g/ha: 62.5 g ai/ha; for pest or weed control at 62.5 g/ha / pest or weed control at 250 g/ha: evaluated after 13 days, 100=total damage to plant, 0=no damage to plant; for pest or weed control at 250 g/ha: 250 g ai/ha
Outline: as §1

[3] = system: redroot pigweed (Amaranthus retroflexus); experiment: Test G Post-Emergence Protocol; conditions: Amaranthus retroflexus, post-emergence, 312 h, read-out: Pigweed, Redroot damage rating; for pest or weed control at 15.625 g/ha: 15.625 g ai/ha, evaluated after 13 days (100=total damage to plant; 0=no damage to plant); for pest or weed control at 62.5 g/ha: 62.5 g ai/ha; for pest or weed control at 62.5 g/ha / pest or weed control at 250 g/ha: evaluated after 13 days, 100=total damage to plant, 0=no damage to plant; for pest or weed control at 250 g/ha: 250 g ai/ha
Outline: as §1

[4] = system: giant foxtail (Setaria faberi); experiment: Test G Post-Emergence Protocol; conditions: Setaria faberi, post-emergence, 312 h, read-out: Foxtail, Giant damage rating; for pest or weed control at 15.625 g/ha: 15.625 g ai/ha, evaluated after 13 days (100=total damage to plant; 0=no damage to plant); for pest or weed control at 62.5 g/ha: 62.5 g ai/ha
Outline: as §1

[5] = system: barnyardgrass (Echinochloa crus-galli); experiment: Test G Post-Emergence Protocol; conditions: Echinochloa crus-galli, post-emergence, 312 h, read-out: Barnyardgrass damage rating; for pest or weed control at 15.625 g/ha: 15.625 g ai/ha, evaluated after 13 days (100=total damage to plant; 0=no damage to plant); for pest or weed control at 62.5 g/ha: 62.5 g ai/ha; for pest or weed control at 62.5 g/ha / pest or weed control at 250 g/ha: evaluated after 13 days, 100=total damage to plant, 0=no damage to plant; for pest or weed control at 250 g/ha: 250 g ai/ha
Outline: as §1

[6] = system: velvetleaf (Abutilon theophrasti); experiment: Test G Post-Emergence Protocol; conditions: Abutilon theophrasti, post-emergence, 312 h, read-out: Velvetleaf damage rating; for pest or weed control at 15.625 g/ha: 15.625 g ai/ha, evaluated after 13 days (100=total damage to plant; 0=no damage to plant); for pest or weed control at 62.5 g/ha: 62.5 g ai/ha; for pest or weed control at 62.5 g/ha / pest or weed control at 250 g/ha: evaluated after 13 days, 100=total damage to plant, 0=no damage to plant; for pest or weed control at 250 g/ha: 250 g ai/ha
Outline: as §1

corn (Zea mays) [7] = experiment: Test G Pre-Emergence Protocol; conditions: Zea mays, pre-emergence, 312 h, evaluated after 13 days; for plant injury at 15.625 g/ha: 15.625 g ai/ha; for plant injury at 15.625 g/ha / plant injury at 250 g/ha: read-out: Corn damage rating (100=total damage to plant; 0=no damage to plant); for plant injury at 62.5 g/ha: 62.5 g ai/ha, 100=total damage to plant, 0=no damage to plant, read-out: Corn damage rating; for plant injury at 250 g/ha: 250 g ai/ha
Outline: (§2)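 Scores are visual damage ratings from 0 (no damage) to 100 (total plant kill), taken 13 days after treatment. Compound was sprayed one day post-sowing at 15.625, 62.5 or 250 g/ha in 50:50 acetone/water with 0.5% Tween 20.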

[8] = system: ivy-leaved morning glory (Ipomoea hederacea); experiment: Test G Pre-Emergence Protocol; conditions: Ipomoea, pre-emergence, 312 h, evaluated after 13 days; for pest or weed control at 15.625 g/ha: 15.625 g ai/ha; for pest or weed control at 15.625 g/ha / pest or weed control at 250 g/ha: read-out: Morningglory, Ivy-leaved damage rating (100=total damage to plant; 0=no damage to plant); for pest or weed control at 62.5 g/ha: 62.5 g ai/ha, 100=total damage to plant, 0=no damage to plant, read-out: Morningglory, Ivy-leaved damage rating; for pest or weed control at 250 g/ha: 250 g ai/ha
Outline: as §2

[9] = system: redroot pigweed (Amaranthus retroflexus); experiment: Test G Pre-Emergence Protocol; conditions: Amaranthus retroflexus, pre-emergence, 312 h, evaluated after 13 days; for pest or weed control at 15.625 g/ha: 15.625 g ai/ha; for pest or weed control at 15.625 g/ha / pest or weed control at 250 g/ha: read-out: Pigweed, Redroot damage rating (100=total damage to plant; 0=no damage to plant); for pest or weed control at 62.5 g/ha: 62.5 g ai/ha, 100=total damage to plant, 0=no damage to plant, read-out: Pigweed, Redroot damage rating; for pest or weed control at 250 g/ha: 250 g ai/ha
Outline: as §2

[10] = system: giant foxtail (Setaria faberi); experiment: Test G Pre-Emergence Protocol; conditions: Setaria faberi, pre-emergence, 312 h, evaluated after 13 days; for pest or weed control at 15.625 g/ha: 15.625 g ai/ha; for pest or weed control at 15.625 g/ha / pest or weed control at 250 g/ha: read-out: Foxtail, Giant damage rating (100=total damage to plant; 0=no damage to plant); for pest or weed control at 62.5 g/ha: 62.5 g ai/ha, 100=total damage to plant, 0=no damage to plant, read-out: Foxtail, Giant damage rating; for pest or weed control at 250 g/ha: 250 g ai/ha
Outline: as §2

[11] = system: barnyardgrass (Echinochloa crus-galli); experiment: Test G Pre-Emergence Protocol; conditions: Echinochloa crus-galli, pre-emergence, 312 h, evaluated after 13 days; for pest or weed control at 15.625 g/ha: 15.625 g ai/ha; for pest or weed control at 15.625 g/ha / pest or weed control at 250 g/ha: read-out: Barnyardgrass damage rating (100=total damage to plant; 0=no damage to plant); for pest or weed control at 62.5 g/ha: 62.5 g ai/ha, 100=total damage to plant, 0=no damage to plant, read-out: Barnyardgrass damage rating; for pest or weed control at 250 g/ha: 250 g ai/ha
Outline: as §2

[12] = system: velvetleaf (Abutilon theophrasti); experiment: Test G Pre-Emergence Protocol; conditions: Abutilon theophrasti, pre-emergence, 312 h, evaluated after 13 days; for pest or weed control at 15.625 g/ha: 15.625 g ai/ha; for pest or weed control at 15.625 g/ha / pest or weed control at 250 g/ha: read-out: Velvetleaf damage rating (100=total damage to plant; 0=no damage to plant); for pest or weed control at 62.5 g/ha: 62.5 g ai/ha, 100=total damage to plant, 0=no damage to plant, read-out: Velvetleaf damage rating; for pest or weed control at 250 g/ha: 250 g ai/ha
Outline: as §2

[13] = evaluated after 13 days, 100=total damage to plant, 0=no damage to plant

With COC(=O)c1cc([C@H]2CN(C)C(=O)[C@@H]2C(=O)Nc2ccccc2F)ccc1F (racemic) [Compound 1682] the plant injury at 15.625 g/ha (corn (Zea mays) [1]) was 0%, the plant injury at 62.5 g/ha (corn (Zea mays) [1]) was 0% and the plant injury at 250 g/ha (corn (Zea mays) [1]) was 0%. For the same compound, the pest or weed control at 15.625 g/ha [2] was 0%, the pest or weed control at 62.5 g/ha [2] was 0% and the pest or weed control at 250 g/ha [2] was 0%. For the same compound, the pest or weed control at 15.625 g/ha [3] was 0%, the pest or weed control at 62.5 g/ha [3] was 0% and the pest or weed control at 250 g/ha [3] was 0%. It also gave a pest or weed control at 15.625 g/ha [4] of 0%, a pest or weed control at 62.5 g/ha [4, 13] of 0% and a pest or weed control at 15.625 g/ha [5] of 0%. It also gave a pest or weed control at 62.5 g/ha [5] of 0%, a pest or weed control at 250 g/ha [5] of 0% and a pest or weed control at 15.625 g/ha [6] of 0%. It also gave a pest or weed control at 62.5 g/ha [6] of 0%, a pest or weed control at 250 g/ha [6] of 0% and a plant injury at 15.625 g/ha (corn (Zea mays) [7]) of 0%. The plant injury at 62.5 g/ha (corn (Zea mays) [7]) was 0%, the plant injury at 250 g/ha (corn (Zea mays) [7]) was 0% and the pest or weed control at 15.625 g/ha [8] was 0%. It also gave a pest or weed control at 62.5 g/ha [8] of 0%, a pest or weed control at 250 g/ha [8] of 0% and a pest or weed control at 15.625 g/ha [9] of 0%. It also gave a pest or weed control at 62.5 g/ha [9] of 0%, a pest or weed control at 250 g/ha [9] of 0% and a pest or weed control at 15.625 g/ha [10] of 0%. For the same compound, the pest or weed control at 62.5 g/ha [10] was 0%, the pest or weed control at 250 g/ha [10] was 0% and the pest or weed control at 15.625 g/ha [11] was 0%. For the same compound, the pest or weed control at 62.5 g/ha [11] was 0%, the pest or weed control at 250 g/ha [11] was 0% and the pest or weed control at 15.625 g/ha [12] was 0%. For the same compound, the pest or weed control at 62.5 g/ha [12] was 0% and the pest or weed control at 250 g/ha [12] was 0%.

Work on CN1C[C@H](c2cccc(C(F)(F)F)c2)[C@@H](C(=O)Nc2cnccc2[N+](=O)[O-])C1=O (racemic) [Compound 1731] yielded a plant injury at 15.625 g/ha (corn (Zea mays) [1]) of 0%, a plant injury at 62.5 g/ha (corn (Zea mays) [1]) of 0% and a plant injury at 250 g/ha (corn (Zea mays) [1]) of 0%. The pest or weed control at 15.625 g/ha [2] was 0%, the pest or weed control at 62.5 g/ha [2] was 0% and the pest or weed control at 250 g/ha [2] was 0%. The pest or weed control at 15.625 g/ha [3] was 0%, the pest or weed control at 62.5 g/ha [3] was 0% and the pest or weed control at 250 g/ha [3] was 10%. For the same compound, the pest or weed control at 15.625 g/ha [4] was 0%, the pest or weed control at 62.5 g/ha [4, 13] was 0% and the pest or weed control at 250 g/ha ([4]; 250 g ai/ha, evaluated after 13 days, 100=total damage to plant, 0=no damage to plant) was 0%. For the same compound, the pest or weed control at 15.625 g/ha [5] was 0%, the pest or weed control at 62.5 g/ha [5] was 0% and the pest or weed control at 250 g/ha [5] was 0%. For the same compound, the pest or weed control at 15.625 g/ha [6] was 0%, the pest or weed control at 62.5 g/ha [6] was 0% and the pest or weed control at 250 g/ha [6] was 0%. It also gave a plant injury at 15.625 g/ha (corn (Zea mays) [7]) of 0%, a plant injury at 62.5 g/ha (corn (Zea mays) [7]) of 0% and a plant injury at 250 g/ha (corn (Zea mays) [7]) of 0%. For the same compound, the pest or weed control at 15.625 g/ha [8] was 0%, the pest or weed control at 62.5 g/ha [8] was 0% and the pest or weed control at 250 g/ha [8] was 0%. For the same compound, the pest or weed control at 15.625 g/ha [9] was 0%, the pest or weed control at 62.5 g/ha [9] was 0% and the pest or weed control at 250 g/ha [9] was 0%. For the same compound, the pest or weed control at 15.625 g/ha [10] was 0%, the pest or weed control at 62.5 g/ha [10] was 0% and the pest or weed control at 250 g/ha [10] was 20%. The pest or weed control at 15.625 g/ha [11] was 0%, the pest or weed control at 62.5 g/ha [11] was 0% and the pest or weed control at 250 g/ha [11] was 0%. For the same compound, the pest or weed control at 15.625 g/ha [12] was 0%, the pest or weed control at 62.5 g/ha [12] was 0% and the pest or weed control at 250 g/ha [12] was 0%.
